In US11993574B2, “Pyrazole and imidazole compounds for inhibition of IL-17 and RORgamma” (REATA PHARMACEUTICALS, INC., priority 2018, dated 2024):

Tests used:
Format in all cases: cell-based
IL-17A = experiment: IL-17 release from differentiated primary human T-cells (IL-17A HTRF assay); conditions: primary human CD4+ T cells differentiated into Th17 cells, 45-hour incubation, IL-17A in supernatant; read-out: hIL17 IC50
Description: C. IL-17 Release from Differentiated Primary Human T-Cells and Cell Viability
Primary human cryopreserved CD4+ T Cells (Lonza) were thawed according to the manufacturer's recommendations and plated either in Lymphocyte Growth Medium-3 (LGM-3) or X-VIVO 20 media (Lonza) in 96-well tissue culture plates at a density of ˜2×10^5 cells per well, and allowed to recover for approximately 4 hours at 37° C. with 5% CO2 in a humidified atmosphere. After the recovery step, DMSO (vehicle) or test compound at doses ranging from 2 to 500 nM or 4 to 1000 nM in a three-fold dilution series was added to the cells. Three replicate wells were tested for each treatment condition. Final DMSO concentration in each well was 0.1%. Immediately after treatment, CD4+ T cells were activated by adding Dynabeads Human T-Activator CD3/CD28 (Life Technologies; bead-to-cell ratio of 1:2.5) and differentiated into Th17 cells by adding a mixture of the following cytokines: transforming growth factor-β (TGF-β, 5 ng/mL), IL-6 (20 ng/mL), IL-23 (20 ng/mL), and IL-1β (10 ng/mL). Undifferentiated control cells received only cytokine IL-2 (50 ng/mL). All human recombinant cytokines were purchased from R&D Systems. Following a 45-hour incubation at 37° C. with 5% CO2 in a humidified atmosphere, the plates were centrifuged for 3 minutes at 250×g, and half of the supernatant was transferred to anew plate to be used in the IL-17A assay (see below). Cell viability was assessed in the original plate using the CyQuant Direct Assay (Life Technologies). CyQuant reagent (an amount equal to 10% of remaining media volume) was added to the wells, and the plates were then incubated at 37° C. for 75 min. Fluorescence was read on a SpectraMax M2e spectrophotometer at 480 nm (excitation) and 535 nm (emission) wavelengths. CyQuant values from test compound samples were normalized to those from DMSO-treated samples. The concentration of IL-17A in the supernatant was measured using the Homogeneous Time-Resolved Fluorescence (HTRF) assay (Cisbio Bioassays) according to the manufacturer's protocol. The assay was performed at room temperature in low volume, solid white 384-well plates (Greiner Bio-One). Samples and standards (serially-diluted human recombinant IL-17A (0 to 5,000 pg/mL concentration range; Cisbio Bioassays) were incubated with the anti-human IL-17A antibody conjugates (the HTRF donor and acceptor pair) for 16 hours and fluorescence was measured using a Pherastar FS microplate reader (BMG Labtech) in the HTRF mode (excitation at 337 nm and emission at 665 nm and 620 nm). IL-17A levels were assessed in duplicate aliquots of supernatant from each well resulting in a total of six readings per test condition. The 665 nm/620 nm signal ratio was calculated and the concentration of IL-17A in each sample was determined by interpolation from the standard curve. The amount of IL-17A from test compound treated samples were normalized to that of the vehicle-treated samples, set to 100%. Data were analyzed using GraphPad Prism (GraphPad Software, La Jolla California USA). Concentrations of test compound were transformed by taking the logarithm of each concentration used. The IC50 values for compound-mediated reduction in IL-17A levels and cell viability were determined by non-linear regression analysis using the log(inhibitor) vs. normalized response with variable slope equation. Inhibition that is closely correlated with reduced viability is considered to be non-specific.

[1] = system: Nrf2 transcription factor; experiment: AREc32 luciferase reporter assay; conditions: Homo sapiens; AREc32 cells, 19 hours; concentration required to increase GST ARE luciferase reporter activity by 2-fold; read-out: NRF2 ARE 2-Fold (EC2×)
Excerpt: A. AREc32 Luciferase Reporter Assay
The AREc32 luciferase reporter assay allows for quantitative assessment of the endogenous activity of the Nrt2 transcription factor in cultured mammalian cells. AREc32 cells are derived from MCF-7 human breast carcinoma cells that were stably transfected with a reporter construct that contains the firefly luciferase gene located downstream of eight copies of the rat GSTA2 antioxidant response element (ARE) sequence (Wang et al., 2006; Concept Life Sciences Integrated Discovery and Development Services Ltd (CLSIDDS)). Active Nrf2 binds to the ARE sequences and increases expression of the firefly luciferase gene. To assess the Nrf2-activating potential of the test compounds, AREc32 cells were plated in black […] plates at a density of 20,000 cells per well in triplicate in DMEM+10% FBS+0.8 mg/mL Geneticin and incubated at 37° C. with 5% CO2 in a humidified atmosphere. The next day, cells were treated with DMSO (vehicle) or test compound (concentration ranges of 0.4-200 nM or 3.9-2000 nM) for 19 hours. Luciferase activity was determined using the ONE-Glo Luciferase assay (Promega). The luminescence signal was measured on a BMG Pherastar microplate reader. The mean luminescence value from test compound-treated wells was normalized to that from DMSO-treated wells and was represented as fold-induction. Data were analyzed using GraphPad Prism version 6.00 for Windows, GraphPad Software, La Jolla Calif. USA. A non-linear regression curve with log (agonist) vs. response using a variable slope was used to fit the data. Where applicable, a maximum threshold value of 50-fold over DMSO was set. EC2× values were interpolated from the curve. EC2× corresponds to the concentration of test compound required to increase GST ARE Luciferase reporter activity by 2-fold.

[2] = target: T1, Human RAR-related Orphan Receptor Gamma (RORγ) (Homo sapiens, UniProt P51449); experiment: RORγ assay (GAL4-RORγ hybrid luciferase reporter, Indigo Biosciences); conditions: inverse-agonist activity, GAL4-RORγ reporter cells, 23 hours
T1 sequence (P51449 269-508 limits assumed): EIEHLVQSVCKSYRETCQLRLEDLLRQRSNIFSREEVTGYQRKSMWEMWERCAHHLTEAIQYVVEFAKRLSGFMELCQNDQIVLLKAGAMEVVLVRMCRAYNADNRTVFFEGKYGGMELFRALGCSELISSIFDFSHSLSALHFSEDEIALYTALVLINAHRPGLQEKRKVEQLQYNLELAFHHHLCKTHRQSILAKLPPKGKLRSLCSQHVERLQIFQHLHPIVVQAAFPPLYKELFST
Excerpt: B. RORγ Assay and Cell Viability
The RORγ assay system was purchased from Indigo Biosciences. This nuclear receptor assay utilizes a human cell line that has been engineered to express a hybrid form of the Human RAR-related Orphan Receptor Gamma (RORγ) at high levels. The N-terminal DNA binding domain (DBD) of the native RORγ receptor was substituted with the yeast GAL4-DBD to generate the GAL4-RORγ hybrid nuclear receptor. The reporter cell line is transfected with a plasmid that encodes the beetle luciferase gene under the control of the GAL4 upstream activating sequence (UAS). GAL4 binds to the UAS and increases transcription of downstream target genes. The GAL4-RORγ hybrid is constitutively active; therefore, the principle application of this reporter assay system is to screen test compounds to quantify inverse-agonist activities against human RORγ. Because the ligand binding domain (LBD) of RORγ is identical to the LBD of RORγt, this assay is an accurate surrogate for evaluating activity of experimental ligands against RORγt. To assess the RORγ inverse-agonist activity of the test compounds, reporter cells were plated in white 96-well plates in triplicate and were treated with DMSO (vehicle) or test compound (concentration ranges of 7.8-2000 nM) at 37° C. with 5% CO2 in a humidified atmosphere for 23 hours. After this incubation, luciferin was added to the wells and luciferase activity was determined by measuring the luminescence signal using a BMG Pherastar microplate reader. Viability was determined using the Live Cell Multiplex Assay (Indigo Biosciences). Values from test compound samples were normalized to those from DMSO-treated samples. Data were analyzed using GraphPad Prism version 6.00 for Windows (GraphPad Software, La Jolla Calif. USA). A non-linear regression analysis with log (inhibitor) vs. normalized response using a variable slope was applied to fit the data and determine the IC50 values for inhibition of RORγ and cell viability. Inhibition that is closely correlated with reduced viability is considered to be non-specific.

IC50 (IL-17A) [nM] | IC50 [2] [nM] | SMILES | EC (2-fold) [1] [µM]
19 | 80 | C[C@H]1C(=O)C(C#N)=C[C@@]2(C)c3c(c(-c4ccccc4)nn3-c3ccc(-c4ccccc4)cc3)CC[C@H]12 [T21] | 0.161
56 | 175 | C[C@H]1C(=O)C(C#N)=C[C@@]2(C)c3nn(-c4ccc(-c5ccccc5)cc4)c(-c4ccccc4)c3CC[C@H]12 [T22] | 1.05
89 | 118 | C[C@H]1C(=O)C(C#N)=C[C@@]2(C)c3c(c(-c4ccccc4)nn3-c3cccc4ccccc34)CC[C@H]12 [T23] | 0.19
30 | 284 | C[C@H]1C(=O)C(C#N)=C[C@@]2(C)c3nn(-c4cccc5ccccc45)c(-c4ccccc4)c3CC[C@H]12 [T24] | 0.827
28 | 92 | CC(C)c1ccc(-n2nc(-c3ccccc3)c3c2[C@]2(C)C=C(C#N)C(=O)[C@H](C)[C@H]2CC3)cc1 [T25] | 0.149
61 | 104 | CC(C)c1ccc(-n2nc3c(c2-c2ccccc2)CC[C@@H]2[C@@H](C)C(=O)C(C#N)=C[C@@]32C)cc1 [T26] | 0.944
61 | 132 | C[C@H]1C(=O)C(C#N)=C[C@@]2(C)c3c(c(-c4ccccc4)nn3C3CCOCC3)CC[C@H]12 [T27] | 0.204
136 | 90 | C[C@H]1C(=O)C(C#N)=C[C@@]2(C)c3nn(C4CCOCC4)c(-c4ccccc4)c3CC[C@H]12 [T28] | 0.719
100 | 91 | Cc1ccc(-n2nc(-c3ccccc3)c3c2[C@]2(C)C=C(C#N)C(=O)[C@H](C)[C@H]2CC3)nc1 [T31] | 0.298
170 | 124 | Cc1ccc(-n2nc(-c3ccccc3)c3c2[C@]2(C)C=C(C#N)C(=O)[C@H](C)[C@H]2CC3)cn1 [T32] | 0.258
87 | 87 | C[C@H]1C(=O)C(C#N)=C[C@@]2(C)c3c(c(-c4ccccc4)nn3-c3cccc(-c4cccnc4)c3)CC[C@H]12 [T34] | 0.245
58 | 129 | C[C@H]1C(=O)C(C#N)=C[C@@]2(C)c3c(c(-c4ccccc4)nn3-c3cccc(-c4ccccc4)c3)CC[C@H]12 [T35] | 0.328
22 | 87 | C[C@H]1C(=O)C(C#N)=C[C@@]2(C)c3c(c(-c4ccccc4)nn3-c3ccc(-c4ccccc4F)cc3)CC[C@H]12 [T36] | 0.233
24 | 32 | C[C@H]1C(=O)C(C#N)=C[C@@]2(C)c3c(c(-c4ccccc4)nn3-c3ccc(-c4cccnc4)cc3)CC[C@H]12 [T37] | 0.167
37 | 46 | Cc1noc(C)c1-c1ccc(-n2nc(-c3ccccc3)c3c2[C@]2(C)C=C(C#N)C(=O)[C@H](C)[C@H]2CC3)cc1 [T38] | 0.215
31 | 25 | C[C@H]1C(=O)C(C#N)=C[C@@]2(C)c3c(c(-c4ccccc4)nn3-c3ccc(-c4ccncc4)cc3)CC[C@H]12 [T39] | 0.139
23 | 80 | C[C@H]1C(=O)C(C#N)=C[C@@]2(C)c3c(c(-c4ccccc4)nn3-c3ccc(-c4cccc(F)c4)cc3)CC[C@H]12 [T40] | 0.238
25 | 83 | Cc1ccc(-c2ccc(-n3nc(-c4ccccc4)c4c3[C@]3(C)C=C(C#N)C(=O)[C@H](C)[C@H]3CC4)cc2)cc1 [T41] | 0.249
35 | 33 | C[C@H]1C(=O)C(C#N)=C[C@@]2(C)c3c(c(-c4ccccc4)nn3-c3ccc(-c4ccc(CO)cc4)cc3)CC[C@H]12 [T42] | 0.13
43 | 53 | C[C@H]1C(=O)C(C#N)=C[C@@]2(C)c3c(c(-c4ccccc4)nn3-c3ccc(-c4ccccc4CO)cc3)CC[C@H]12 [T43] | 0.174
41 | 83 | Cc1ccccc1-c1ccc(-n2nc(-c3ccccc3)c3c2[C@]2(C)C=C(C#N)C(=O)[C@H](C)[C@H]2CC3)cc1 [T44] | 0.242
22 | 44 | C[C@H]1C(=O)C(C#N)=C[C@@]2(C)c3c(c(-c4ccccc4)nn3-c3ccc(-c4cccc(CO)c4)cc3)CC[C@H]12 [T45] | 0.147
20 | 65 | COc1ccc(-c2ccc(-n3nc(-c4ccccc4)c4c3[C@]3(C)C=C(C#N)C(=O)[C@H](C)[C@H]3CC4)cc2)cc1 [T46] | 0.219
